The values below come from patent publication US20250197374A1, “WEE1 DEGRADING COMPOUNDS AND USES THEREOF” (BRISTOL-MYERS SQUIBB COMPANY, priority 2023, published 2025).

In this assay the target is T1, WEE1 (Homo sapiens, UniProt P30291+Q96SW2).
T1 construct: C-terminal ePL-tagged (DiscoverX, Fremont, CA) full-length WEE1 expression construct; expressed in transfected cells; host or cells: LentiX-HEK293T (Invitrogen), lentivirally transduced; the cells also over-express GSPT1-GN
The experiment in a line: WEE1-ePL degradation assay (293T-LentiX, InCELL Hunter luminescence, 4 hr). The format is cell-based. The following applies: for DC50: LentiX-HEK293T cells expressing WEE1-ePL, 4 hr incubation, read-out: 293T-LentiX WEE1-ePL Degradation 4 hr EC50; for 293T-LentiX WEE1-ePL Degradation 4 hr YMin (%): lower limit of fit, % of DMSO control signal remaining. From the text: To generate LentiX-WEE1-ePL-GSPT1-ND cells for the WEE1 degradation assay, LentiX-HEK293T (Invitrogen) were tranduced by lentivirus with a C-terminal ePL-tagged (DiscoverX, Fremont, CA) full-length WEE1 expression construct. A separate lentiviral construct was introduced to over-express a mutated form of GSPT1 (NP_002085), termed GSPT1-GN, which contains a G575N mutation and is further truncated in the first 158 amino acids. GSPT1-GN is functional but not degradable by Cereblon. Cells were selected and maintained in complete DMEM media (DMEM, 10% Heat Inactivated FBS, 400 μg/mL Geneticin, and 1 μg/mL puromycin at 37 C and 5% CO2). Cells were passaged every 3-4 days by reseeding 1×10^6 cells in a T150 flask.
Cells were dispensed into 384-well white plates (Corning #3570, NY) that were pre-spotted with compounds using an acoustic dispenser (Echo acoustic transfer system, Beckman Coulter Life Sciences, Carlsbad, CA) as a 10-point dose-response curve with a 3-fold dilution starting at either 1 uM or 10 uM and including a DMSO control. Twenty-five microliters of media containing 2500 cells for LentiX-oeWEE1-ePL was dispensed per well. Assay plates were incubated at 37° C. with 5% CO2 for four hours (WEE1) After incubation, 25 μL of the InCELL Hunter™ Detection Reagent Working Solution (DiscoverX, Fremont, CA) was added to each well and incubated at room temperature for 30 minutes protected from light. After 30 minutes, luminescence was read on a PHERAstar luminometer (Cary, NC).
To determine the half-maximal effective concentration (EC50) values for WEE1-ePL degradation, a four parameter logistic model was used: (Sigmoidal Dose-Response Model) (FIT=(A+((B−A)/1+((C/x)^D)))) where C is the inflection point (EC50), D is the Hill slope, and A and B are the low and high limits of the fit respectively). The lower limit of the fit (value A) is referred to as Ymin. […] The maximum limit constraint, Ymax, is similarly derived using DMSO control. The curves were processed and evaluated using Activity Base (IDBS, Alameda, CA) or using Dotmatics (Boston, MA).

The structures appear in SMILES notation.

T1 sequence (P30291 whole entry): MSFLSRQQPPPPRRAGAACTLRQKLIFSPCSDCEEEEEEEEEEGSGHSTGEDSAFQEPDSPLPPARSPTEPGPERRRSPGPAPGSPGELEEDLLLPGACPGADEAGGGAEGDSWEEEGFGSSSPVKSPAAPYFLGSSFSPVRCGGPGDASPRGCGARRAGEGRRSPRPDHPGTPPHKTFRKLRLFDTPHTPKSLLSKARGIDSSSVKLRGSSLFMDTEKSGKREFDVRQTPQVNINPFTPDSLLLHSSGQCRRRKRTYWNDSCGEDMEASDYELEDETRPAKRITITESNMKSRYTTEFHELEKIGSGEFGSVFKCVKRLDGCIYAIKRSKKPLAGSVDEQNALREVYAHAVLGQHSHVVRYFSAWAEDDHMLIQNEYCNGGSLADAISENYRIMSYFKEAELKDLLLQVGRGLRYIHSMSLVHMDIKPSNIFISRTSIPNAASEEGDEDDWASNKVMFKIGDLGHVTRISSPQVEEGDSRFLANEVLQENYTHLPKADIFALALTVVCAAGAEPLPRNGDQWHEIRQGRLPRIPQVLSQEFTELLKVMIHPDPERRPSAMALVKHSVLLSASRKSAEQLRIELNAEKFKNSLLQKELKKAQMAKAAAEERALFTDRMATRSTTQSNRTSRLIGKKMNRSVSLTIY
T1 sequence (Q96SW2 whole entry): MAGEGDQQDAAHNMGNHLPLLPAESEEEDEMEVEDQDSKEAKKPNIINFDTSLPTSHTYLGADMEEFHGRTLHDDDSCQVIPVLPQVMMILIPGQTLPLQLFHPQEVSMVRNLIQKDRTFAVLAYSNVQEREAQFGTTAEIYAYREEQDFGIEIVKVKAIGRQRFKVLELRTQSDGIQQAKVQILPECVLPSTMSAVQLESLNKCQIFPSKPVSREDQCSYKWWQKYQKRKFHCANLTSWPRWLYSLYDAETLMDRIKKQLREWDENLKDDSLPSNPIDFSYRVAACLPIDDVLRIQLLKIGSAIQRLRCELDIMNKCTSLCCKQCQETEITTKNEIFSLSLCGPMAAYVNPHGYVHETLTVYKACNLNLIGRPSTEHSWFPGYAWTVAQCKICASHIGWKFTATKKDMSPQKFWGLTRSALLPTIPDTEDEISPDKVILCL
T1 sequence (Q16531 whole entry partner): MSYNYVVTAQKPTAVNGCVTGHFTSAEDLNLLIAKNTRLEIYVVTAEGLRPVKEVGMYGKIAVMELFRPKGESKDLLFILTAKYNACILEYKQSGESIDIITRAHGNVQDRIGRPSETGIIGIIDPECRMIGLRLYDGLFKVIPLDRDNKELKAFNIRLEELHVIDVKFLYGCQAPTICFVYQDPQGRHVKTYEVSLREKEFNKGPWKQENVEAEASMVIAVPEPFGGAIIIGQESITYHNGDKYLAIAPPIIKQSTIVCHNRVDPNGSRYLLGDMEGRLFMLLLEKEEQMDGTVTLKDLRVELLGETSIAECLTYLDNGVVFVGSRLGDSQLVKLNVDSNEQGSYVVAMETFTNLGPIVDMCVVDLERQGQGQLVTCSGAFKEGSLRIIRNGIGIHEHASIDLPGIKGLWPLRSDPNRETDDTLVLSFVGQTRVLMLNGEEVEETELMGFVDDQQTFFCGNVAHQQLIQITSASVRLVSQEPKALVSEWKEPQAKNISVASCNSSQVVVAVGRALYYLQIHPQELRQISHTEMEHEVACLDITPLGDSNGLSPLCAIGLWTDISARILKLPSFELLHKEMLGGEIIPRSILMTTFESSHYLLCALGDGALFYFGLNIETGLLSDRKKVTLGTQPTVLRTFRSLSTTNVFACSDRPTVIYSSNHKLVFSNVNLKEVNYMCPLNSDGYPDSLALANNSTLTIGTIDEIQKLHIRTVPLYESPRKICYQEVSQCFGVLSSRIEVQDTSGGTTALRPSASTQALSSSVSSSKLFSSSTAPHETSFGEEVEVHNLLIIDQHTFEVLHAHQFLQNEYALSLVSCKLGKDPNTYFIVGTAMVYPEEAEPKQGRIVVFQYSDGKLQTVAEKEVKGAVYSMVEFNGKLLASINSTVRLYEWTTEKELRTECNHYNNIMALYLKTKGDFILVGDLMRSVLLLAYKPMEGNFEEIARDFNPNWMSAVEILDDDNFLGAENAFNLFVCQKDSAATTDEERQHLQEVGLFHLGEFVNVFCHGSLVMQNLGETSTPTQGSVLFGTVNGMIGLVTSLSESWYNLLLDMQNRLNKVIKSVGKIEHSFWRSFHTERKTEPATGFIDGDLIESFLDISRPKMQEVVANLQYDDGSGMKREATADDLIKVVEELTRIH

As to `COC[C@@H]1CN(Cc2ccc3cc(N4CCOCC4)cnc3c2F)C[C@H]1Oc1ccc2c(c1)CN([C@H]1CCC(=O)NC1=O)C2=O` [Example 101, (3S)-3-(5-{[(3S,4S)-1-{[8-fluoro-3-(morpholin-4-yl)quinolin-7-yl]methyl}-4-(methoxymethyl)pyrrolidin-3-yl]oxy}-1-oxo-2,3-dihydro-1H-isoindol-2-yl)piperidine-2,6-dione], the DC50 amounted to 3 nM and the “293T-LentiX WEE1-ePL Degradation 4 hr YMin (%)” value turned out to be 33.0%.

For `Cc1cc([C@H]2CN(Cc3cc(F)c4nc(C5CCOCC5)ccc4c3)C[C@@H]2Oc2ccc3c(c2)CN([C@H]2CCC(=O)NC2=O)C3=O)ccn1` (relative stereo) [Example 151, (3S)-3-(5-{[(3R*,4S*)-1-{[8-fluoro-2-(oxan-4-yl)quinolin-6-yl]methyl}-4-(2-methylpyridin-4-yl)pyrrolidin-3-yl]oxy}-1-oxo-2,3-dihydro-1H-isoindol-2-yl)piperidine-2,6-dione], the DC50 stood at 11 nM and the “293T-LentiX WEE1-ePL Degradation 4 hr YMin (%)” value amounted to 22.4%.

Regarding `O=C1CC[C@H](N2Cc3cc(O[C@@H]4CN(Cc5cc(F)c6nc(C7CCOCC7)ccc6c5)C[C@H]4OCC4CC4)ccc3C2=O)C(=O)N1` [Example 125, (3S)-3-(5-{[(3R,4R)-4-(cyclopropyl-methoxy)-1-{[8-fluoro-2-(oxan-4-yl)quinolin-6-yl]methyl}pyrrolidin-3-yl]oxy}-1-oxo-2,3-dihydro-1H-isoindol-2-yl)piperidine-2,6-dione], the DC50 was 4 nM and the “293T-LentiX WEE1-ePL Degradation 4 hr YMin (%)” value was 29.2%.

Consider `CC(C)(C)C[C@@H]1CN(Cc2cc(F)c3nc(C4CCOCC4)ccc3c2)C[C@H]1Oc1ccc2c(c1)CN([C@H]1CCC(=O)NC1=O)C2=O` (relative stereo) [Example 131, (3S)-3-(5-{[(3S*,4R*)-4-(2,2-dimethylpropyl)-1-{[8-fluoro-2-(oxan-4-yl)quinolin-6-yl]methyl}pyrrolidin-3-yl]oxy}-1-oxo-2,3-dihydro-1H-isoindol-2-yl)piperidine-2,6-dione], for which the “293T-LentiX WEE1-ePL Degradation 4 hr YMin (%)” value stood at 100.0%.

Take `COC[C@@H]1CN(Cc2cc(F)c3nc(C4CCN(C5COC5)CC4)ncc3c2)C[C@H]1Oc1ccc2c(c1)CN([C@H]1CCC(=O)NC1=O)C2=O` [Example 144, (3S)-3-(5-{[(3S,4S)-1-({8-fluoro-2-[1-(oxetan-3-yl)piperidin-4-yl]quinazolin-6-yl}methyl)-4-(methoxymethyl)pyrrolidin-3-yl]oxy}-1-oxo-2,3-dihydro-1H-isoindol-2-yl)piperidine-2,6-dione]: the DC50 was 3 nM and the “293T-LentiX WEE1-ePL Degradation 4 hr YMin (%)” value was determined as 21.4%.

On to `O=C1CCC(N2Cc3cc(O[C@@H]4CN(Cc5cc(F)c6nc(C7CCOCC7)ccc6c5)C[C@H]4OC4COC4)ccc3C2=O)C(=O)N1` (relative stereo) [Example 133, rel-3-(5-(((3R,4R)-1-((8-fluoro-2-(tetrahydro-2H-pyran-4-yl)quinolin-6-yl)methyl)-4-(oxetan-3-yloxy)pyrrolidin-3-yl)oxy)-1-oxoisoindolin-2-yl)piperidine-2,6-dione], for which the DC50 was found to be 70 nM and the “293T-LentiX WEE1-ePL Degradation 4 hr YMin (%)” value is recorded as 58.0%.

`CC(C)(C)C[C@H]1CN(Cc2cc(F)c3nc(C4CCOCC4)ccc3c2)C[C@@H]1Oc1ccc2c(c1)CN([C@H]1CCC(=O)NC1=O)C2=O` (relative stereo) [Example 150, (3S)-3-(5-{[(3R*,4S*)-4-(2,2-dimethylpropyl)-1-{[8-fluoro-2-(oxan-4-yl)quinolin-6-yl]methyl}pyrrolidin-3-yl]oxy}-1-oxo-2,3-dihydro-1H-isoindol-2-yl)piperidine-2,6-dione]: the DC50 stood at 10 nM and the “293T-LentiX WEE1-ePL Degradation 4 hr YMin (%)” value was determined as 48.5%.

Regarding `CC(C)O[C@@H]1CN(Cc2cc(F)c3nc(C4CCOCC4)ccc3c2)C[C@H]1Oc1ccc2c(c1)CN([C@H]1CCC(=O)NC1=O)C2=O` [Example 132, (3S)-3-(5-{[(3R,4R)-1-{[8-fluoro-2-(oxan-4-yl)quinolin-6-yl]methyl}-4-(propan-2-yloxy)pyrrolidin-3-yl]oxy}-1-oxo-2,3-dihydro-1H-isoindol-2-yl)piperidine-2,6-dione], the DC50 amounted to 5 nM and the “293T-LentiX WEE1-ePL Degradation 4 hr YMin (%)” value is listed as 44.9%.

Regarding `COC[C@@H]1CN(Cc2cc(F)c3cc(N4CCOCC4)ncc3c2)C[C@H]1Oc1ccc2c(c1)CN([C@H]1CCC(=O)NC1=O)C2=O` [Example 49, (3S)-3-(5-{[(3S,4S)-1-{[5-fluoro-3-(morpholin-4-yl)isoquinolin-7-yl]methyl}-4-(methoxymethyl)pyrrolidin-3-yl]oxy}-1-oxo-2,3-dihydro-1H-isoindol-2-yl)piperidine-2,6-dione], the DC50 worked out at 2 nM and the “293T-LentiX WEE1-ePL Degradation 4 hr YMin (%)” value amounted to 24.5%.

For the compound `O=C1CCC(N2Cc3cc(O[C@H]4CN(Cc5cc(F)c6nc(C7CCOCC7)ccc6c5)C[C@@H]4OC4COC4)ccc3C2=O)C(=O)N1` (relative stereo) [Example 152, rel-3-(5-(((3S,4S)-1-((8-fluoro-2-(tetrahydro-2H-pyran-4-yl)quinolin-6-yl)methyl)-4-(oxetan-3-yloxy)pyrrolidin-3-yl)oxy)-1-oxoisoindolin-2-yl)piperidine-2,6-dione], the “293T-LentiX WEE1-ePL Degradation 4 hr YMin (%)” value came out at 82.2%.

Consider `COC[C@@H]1CN(Cc2cc3ccc(N4CCN(C(C)=O)CC4)cc3c(F)n2)C[C@H]1Oc1ccc2c(c1)CN([C@H]1CCC(=O)NC1=O)C2=O` [Example 124, (3S)-3-(5-{[(3S,4S)-1-{[7-(4-acetylpiperazin-1-yl)-1-fluoroisoquinolin-3-yl]methyl}-4-(methoxymethyl)pyrrolidin-3-yl]oxy}-1-oxo-2,3-dihydro-1H-isoindol-2-yl)piperidine-2,6-dione], for which the “293T-LentiX WEE1-ePL Degradation 4 hr YMin (%)” value is recorded as 25.4%.

For `Cc1cc([C@@H]2CN(Cc3cc(F)c4nc(C5CCOCC5)ccc4c3)C[C@H]2Oc2ccc3c(c2)CN([C@H]2CCC(=O)NC2=O)C3=O)ccn1` (relative stereo) [Example 126, (3S)-3-(5-{[(3S*,4R*)-1-{[8-fluoro-2-(oxan-4-yl)quinolin-6-yl]methyl}-4-(2-methylpyridin-4-yl)pyrrolidin-3-yl]oxy}-1-oxo-2,3-dihydro-1H-isoindol-2-yl)piperidine-2,6-dione], the “293T-LentiX WEE1-ePL Degradation 4 hr YMin (%)” value stood at 90.0%.

With `COC[C@@H]1CN(Cc2ccc3nc(N4CCN(C(C)=O)C5(COC5)C4)ncc3c2)C[C@H]1Oc1ccc2c(c1)CN([C@H]1CCC(=O)NC1=O)C2=O` [Example 95, (3S)-3-(5-{[(3S,4S)-1-[(2-{5-acetyl-2-oxa-5,8-diazaspiro[3.5]nonan-8-yl}quinazolin-6-yl)methyl]-4-(methoxymethyl)pyrrolidin-3-yl]oxy}-1-oxo-2,3-dihydro-1H-isoindol-2-yl)piperidine-2,6-dione], the DC50 worked out at 2 nM and the “293T-LentiX WEE1-ePL Degradation 4 hr YMin (%)” value was 20.9%.

As to `COC[C@@H]1CN(Cc2cc(F)c3nc(C)c(N4CCOCC4)cc3c2)C[C@H]1Oc1ccc2c(c1)CN([C@H]1CCC(=O)NC1=O)C2=O` [Example 100, (3S)-3-(5-{[(3S,4S)-1-{[8-fluoro-2-methyl-3-(morpholin-4-yl)quinolin-6-yl]methyl}-4-(methoxymethyl)pyrrolidin-3-yl]oxy}-1-oxo-2,3-dihydro-1H-isoindol-2-yl)piperidine-2,6-dione], the DC50 was determined as 1 nM and the “293T-LentiX WEE1-ePL Degradation 4 hr YMin (%)” value was determined as 24.6%.

For `COC[C@@H]1CN(Cc2ccc3ncc(N4CCOCC4)cc3c2F)C[C@H]1Oc1ccc2c(c1)CN([C@H]1CCC(=O)NC1=O)C2=O` [Example 31, (3S)-3-(5-{[(3S,4S)-1-{[5-fluoro-3-(morpholin-4-yl)quinolin-6-yl]methyl}-4-(methoxymethyl)pyrrolidin-3-yl]oxy}-1-oxo-2,3-dihydro-1H-isoindol-2-yl)piperidine-2,6-dione], the “293T-LentiX WEE1-ePL Degradation 4 hr YMin (%)” value is 20.1%.
